Laboratory results taken from the NIST ThermoML archive (doi:10.1021/je1012235).
Numbers after ± are expanded uncertainties.

Conditions: 353.15 K; 101.33 kPa; Liquid

Row | Structure (SMILES) | viscosity
1 | CCCCCCCC/C=C\CCCCCCCCCCCC(=O)OC [methyl (Z)-13-docosenoate] | 2.707 ± 0.038 mPa·s

Same assay, conditions: 353.15 K; 101.33 kPa; Liquid; Vibrating tube method

Row | Structure (SMILES) | mass density
2 | CC/C=C\C/C=C\C/C=C\CCCCCCCC(=O)OC [methyl (Z,Z,Z)-9,12,15-octadecatrienoate] | 857.6 ± 1 kg/m3
3 | CCCCCCCCCCCCCCCCCCCC(=O)OC [methyl eicosanoate] | 820.8 ± 1 kg/m3
4 | CCCCCCCCCCCCCCCCCCCCCC(=O)OC [methyl docosanoate] | 820.6 ± 1 kg/m3
5 | CCCCCCCCCCCCCCCCCCCC(=O)OCC [ethyl eicosanoate] | 816.6 ± 1.2 kg/m3
6 | CCCCCCCCCCCCCCCCCCCCCCCC(=O)OC [methyl tetracosanoate] | 820.3 ± 1 kg/m3
7 | CCCCC/C=C\C/C=C\CCCCCCCC(=O)OCC [ethyl linoleate] | 838.8 ± 1 kg/m3
8 | CCCCCCCC/C=C\CCCCCCCCCC(=O)OC [methyl cis-11-eicosenoate] | 831.1 ± 1.2 kg/m3
9 | CC/C=C\C/C=C\C/C=C\CCCCCCCC(=O)OCC [ethyl 9,12,15-octadecatrienoate] | 848.9 ± 1 kg/m3
10 | CCCCCC/C=C\CCCCCCCC(=O)OC [methyl (Z)-9-hexadecenoate] | 823.5 ± 1 kg/m3
11 | CCCCCCCC/C=C\CCCCCCCCCCCC(=O)OC [methyl (Z)-13-docosenoate] | 828.6 ± 1 kg/m3

Same assay, conditions: 358.15 K; 101.33 kPa; Liquid

Row | Structure (SMILES) | viscosity
12 | CC/C=C\C/C=C\C/C=C\CCCCCCCC(=O)OC [methyl (Z,Z,Z)-9,12,15-octadecatrienoate] | 1.488 ± 0.023 mPa·s
13 | CCCCCCCCCCCCCCCCCCCC(=O)OC [methyl eicosanoate] | 2.461 ± 0.033 mPa·s
14 | CCCCCCCCCCCCCCCCCCCCCC(=O)OC [methyl docosanoate] | 2.939 ± 0.041 mPa·s
15 | CCCCCCCCCCCCCCCCCCCC(=O)OCC [ethyl eicosanoate] | 2.569 ± 0.042 mPa·s
16 | CCCCCCCCCCCCCCCCCCCCCCCC(=O)OC [methyl tetracosanoate] | 3.48 ± 0.047 mPa·s
17 | CCCCC/C=C\C/C=C\CCCCCCCC(=O)OCC [ethyl linoleate] | 1.676 ± 0.025 mPa·s
18 | CCCCCCCC/C=C\CCCCCCCCCC(=O)OC [methyl cis-11-eicosenoate] | 2.174 ± 0.036 mPa·s
19 | CC/C=C\C/C=C\C/C=C\CCCCCCCC(=O)OCC [ethyl 9,12,15-octadecatrienoate] | 1.538 ± 0.023 mPa·s
20 | CCCCCC/C=C\CCCCCCCC(=O)OC [methyl (Z)-9-hexadecenoate] | 1.29 ± 0.02 mPa·s
21 | CCCCCCCC/C=C\CCCCCCCCCCCC(=O)OC [methyl (Z)-13-docosenoate] | 2.51 ± 0.035 mPa·s

Same assay, conditions: 358.15 K; 101.33 kPa; Liquid; Vibrating tube method

Row | Structure (SMILES) | mass density
22 | CC/C=C\C/C=C\C/C=C\CCCCCCCC(=O)OC [methyl (Z,Z,Z)-9,12,15-octadecatrienoate] | 853.9 ± 1 kg/m3
23 | CCCCCCCCCCCCCCCCCCCC(=O)OC [methyl eicosanoate] | 817.3 ± 1 kg/m3
24 | CCCCCCCCCCCCCCCCCCCCCC(=O)OC [methyl docosanoate] | 817.2 ± 1 kg/m3
25 | CCCCCCCCCCCCCCCCCCCC(=O)OCC [ethyl eicosanoate] | 813.2 ± 1.2 kg/m3
26 | CCCCCCCCCCCCCCCCCCCCCCCC(=O)OC [methyl tetracosanoate] | 816.9 ± 1 kg/m3
27 | CCCCC/C=C\C/C=C\CCCCCCCC(=O)OCC [ethyl linoleate] | 835.2 ± 1 kg/m3
28 | CCCCCCCC/C=C\CCCCCCCCCC(=O)OC [methyl cis-11-eicosenoate] | 827.6 ± 1.2 kg/m3
29 | CC/C=C\C/C=C\C/C=C\CCCCCCCC(=O)OCC [ethyl 9,12,15-octadecatrienoate] | 845.3 ± 1 kg/m3
30 | CCCCCC/C=C\CCCCCCCC(=O)OC [methyl (Z)-9-hexadecenoate] | 819.8 ± 1 kg/m3
31 | CCCCCCCC/C=C\CCCCCCCCCCCC(=O)OC [methyl (Z)-13-docosenoate] | 825.1 ± 1 kg/m3

Same assay, conditions: 363.15 K; 101.33 kPa; Liquid

Row | Structure (SMILES) | viscosity
32 | CC/C=C\C/C=C\C/C=C\CCCCCCCC(=O)OC [methyl (Z,Z,Z)-9,12,15-octadecatrienoate] | 1.402 ± 0.022 mPa·s
33 | CCCCCCCCCCCCCCCCCCCC(=O)OC [methyl eicosanoate] | 2.273 ± 0.031 mPa·s
34 | CCCCCCCCCCCCCCCCCCCCCC(=O)OC [methyl docosanoate] | 2.709 ± 0.038 mPa·s
35 | CCCCCCCCCCCCCCCCCCCC(=O)OCC [ethyl eicosanoate] | 2.372 ± 0.039 mPa·s
36 | CCCCCCCCCCCCCCCCCCCCCCCC(=O)OC [methyl tetracosanoate] | 3.19 ± 0.044 mPa·s
37 | CCCCC/C=C\C/C=C\CCCCCCCC(=O)OCC [ethyl linoleate] | 1.569 ± 0.024 mPa·s
38 | CCCCCCCC/C=C\CCCCCCCCCC(=O)OC [methyl cis-11-eicosenoate] | 2.019 ± 0.034 mPa·s
39 | CC/C=C\C/C=C\C/C=C\CCCCCCCC(=O)OCC [ethyl 9,12,15-octadecatrienoate] | 1.449 ± 0.022 mPa·s
40 | CCCCCC/C=C\CCCCCCCC(=O)OC [methyl (Z)-9-hexadecenoate] | 1.207 ± 0.019 mPa·s
41 | CCCCCCCC/C=C\CCCCCCCCCCCC(=O)OC [methyl (Z)-13-docosenoate] | 2.322 ± 0.033 mPa·s

Same assay, conditions: 363.15 K; 101.33 kPa; Liquid; Vibrating tube method

Row | Structure (SMILES) | mass density
42 | CC/C=C\C/C=C\C/C=C\CCCCCCCC(=O)OC [methyl (Z,Z,Z)-9,12,15-octadecatrienoate] | 850.3 ± 1 kg/m3
43 | CCCCCCCCCCCCCCCCCCCC(=O)OC [methyl eicosanoate] | 813.8 ± 1 kg/m3
44 | CCCCCCCCCCCCCCCCCCCCCC(=O)OC [methyl docosanoate] | 813.7 ± 1 kg/m3
45 | CCCCCCCCCCCCCCCCCCCC(=O)OCC [ethyl eicosanoate] | 809.7 ± 1.2 kg/m3
46 | CCCCCCCCCCCCCCCCCCCCCCCC(=O)OC [methyl tetracosanoate] | 813.5 ± 1 kg/m3
47 | CCCCC/C=C\C/C=C\CCCCCCCC(=O)OCC [ethyl linoleate] | 831.6 ± 1 kg/m3
48 | CCCCCCCC/C=C\CCCCCCCCCC(=O)OC [methyl cis-11-eicosenoate] | 824.1 ± 1.2 kg/m3
49 | CC/C=C\C/C=C\C/C=C\CCCCCCCC(=O)OCC [ethyl 9,12,15-octadecatrienoate] | 841.6 ± 1 kg/m3
50 | CCCCCC/C=C\CCCCCCCC(=O)OC [methyl (Z)-9-hexadecenoate] | 816 ± 1 kg/m3
51 | CCCCCCCC/C=C\CCCCCCCCCCCC(=O)OC [methyl (Z)-13-docosenoate] | 821.7 ± 1 kg/m3

Same assay, conditions: 368.15 K; 101.33 kPa; Liquid

Row | Structure (SMILES) | viscosity
52 | CC/C=C\C/C=C\C/C=C\CCCCCCCC(=O)OC [methyl (Z,Z,Z)-9,12,15-octadecatrienoate] | 1.327 ± 0.021 mPa·s
53 | CCCCCCCCCCCCCCCCCCCC(=O)OC [methyl eicosanoate] | 2.107 ± 0.029 mPa·s
54 | CCCCCCCCCCCCCCCCCCCCCC(=O)OC [methyl docosanoate] | 2.502 ± 0.035 mPa·s
55 | CCCCCCCCCCCCCCCCCCCC(=O)OCC [ethyl eicosanoate] | 2.196 ± 0.037 mPa·s
56 | CCCCCCCCCCCCCCCCCCCCCCCC(=O)OC [methyl tetracosanoate] | 2.933 ± 0.041 mPa·s
57 | CCCCCCCC/C=C\CCCCCCCCCC(=O)OC [methyl cis-11-eicosenoate] | 1.881 ± 0.032 mPa·s
58 | CC/C=C\C/C=C\C/C=C\CCCCCCCC(=O)OCC [ethyl 9,12,15-octadecatrienoate] | 1.368 ± 0.021 mPa·s

Same assay, conditions: 368.15 K; 101.33 kPa; Liquid; Vibrating tube method

Row | Structure (SMILES) | mass density
59 | CCCCCCCCCCCCCCCCCCCC(=O)OC [methyl eicosanoate] | 810.4 ± 1 kg/m3
60 | CCCCCCCCCCCCCCCCCCCCCC(=O)OC [methyl docosanoate] | 810.3 ± 1 kg/m3
61 | CCCCCCCCCCCCCCCCCCCC(=O)OCC [ethyl eicosanoate] | 806.1 ± 1.2 kg/m3
62 | CCCCCCCCCCCCCCCCCCCCCCCC(=O)OC [methyl tetracosanoate] | 810.1 ± 1 kg/m3
63 | CCCCCCCC/C=C\CCCCCCCCCC(=O)OC [methyl cis-11-eicosenoate] | 820.7 ± 1.2 kg/m3
64 | CC/C=C\C/C=C\C/C=C\CCCCCCCC(=O)OCC [ethyl 9,12,15-octadecatrienoate] | 838 ± 1 kg/m3

Same assay, conditions: 373.15 K; 101.33 kPa; Liquid

Row | Structure (SMILES) | viscosity
65 | CC/C=C\C/C=C\C/C=C\CCCCCCCC(=O)OC [methyl (Z,Z,Z)-9,12,15-octadecatrienoate] | 1.253 ± 0.02 mPa·s
66 | CCCCCCCCCCCCCCCCCCCC(=O)OC [methyl eicosanoate] | 1.959 ± 0.027 mPa·s
67 | CCCCCCCCCCCCCCCCCCCCCC(=O)OC [methyl docosanoate] | 2.317 ± 0.033 mPa·s
68 | CCCCCCCCCCCCCCCCCCCC(=O)OCC [ethyl eicosanoate] | 2.039 ± 0.034 mPa·s
69 | CCCCCCCCCCCCCCCCCCCCCCCC(=O)OC [methyl tetracosanoate] | 2.707 ± 0.038 mPa·s
70 | CCCCCCCC/C=C\CCCCCCCCCC(=O)OC [methyl cis-11-eicosenoate] | 1.758 ± 0.03 mPa·s
71 | CC/C=C\C/C=C\C/C=C\CCCCCCCC(=O)OCC [ethyl 9,12,15-octadecatrienoate] | 1.295 ± 0.02 mPa·s

Same assay, conditions: 373.15 K; 101.33 kPa; Liquid; Vibrating tube method

Row | Structure (SMILES) | mass density
72 | CCCCCCCCCCCCCCCCCCCC(=O)OC [methyl eicosanoate] | 807 ± 1 kg/m3
73 | CCCCCCCCCCCCCCCCCCCCCC(=O)OC [methyl docosanoate] | 806.9 ± 1 kg/m3
74 | CCCCCCCCCCCCCCCCCCCC(=O)OCC [ethyl eicosanoate] | 802.4 ± 1.2 kg/m3
75 | CCCCCCCCCCCCCCCCCCCCCCCC(=O)OC [methyl tetracosanoate] | 806.8 ± 1 kg/m3
76 | CCCCCCCC/C=C\CCCCCCCCCC(=O)OC [methyl cis-11-eicosenoate] | 817.3 ± 1.2 kg/m3
77 | CC/C=C\C/C=C\C/C=C\CCCCCCCC(=O)OCC [ethyl 9,12,15-octadecatrienoate] | 834.5 ± 1 kg/m3
